# Experimental data published in patent US7074420B2, “Cosmetic treatment using a new retinoid” (Avon Products, Inc., priority 2001, dated 2006).
# Experiment: stability of compositions (lasting white color, no yellowing over time)
# Format: physicochemical
# Conditions: particularly in a stick product form
# From the text: This is evidenced by a lasting white color of the present compositions, without the manifestation of yellowing over time, particularly in a stick product form. The present compositions can also be in other cosmetic product forms, such as, for example, an emulsion, a gel, a lip balm, a lip gloss, a lipstick, a lotion, a mask, an ointment, a patch, a pomade, a solution, a spray, or a towelette.
structure (smiles),measurement,value
CC(C=CC1=C(C)CCCC1(C)C)=CC=CC(C)=CCO[Si](C)(C)C [retinoxytrimethylsilane],stability of compositions compared to prior art,more stable compositions than those of the prior art
